These results are taken from patent publication US12257265B2, “Cyclic dinucleotide prodrug molecule, preparation method therefor and application thereof” (SHENZHEN YING BIOPHARMACEUTICAL CO., LTD., priority 2019, dated 2025).

Where two headings read alike, the source gives them in different places.

One may read the EC50 as the concentration that produces a half-maximal response. The logP is a log measure of how a compound divides between an organic and an aqueous phase.

One data set concerns CT-26-Luc cells. The data set is described as follows: Anticancer activity assay in CT-26 mouse tumor model. In kind it is in vivo, mice. The following applies: 1 mg/kg intratumoral injection, once every two days, three times, FIG. 4 and FIG. 5. The method, then: Anticancer Activity Assay of the Compound 8
Mice: BABL/C female mice, weight 18 g to 22 g. The source is the animal experiment center in Guangdong province, and the mice are fed with pellet feed and freely eat and drink water.
Tumor Cell Lines: CT-26-Luc Cells […]
The administration method includes the following steps: the administration was started at the 10th day after tumor inoculation growth, and 50 microliters/mouse was administered once every two days for a total of three times by intratumoral injection. The growth of tumors in mice was detected by chemiluminescence using the IVIS Spectrum Imaging System. […] After imaging, fluorescence values were converted to photon numbers and the total number of fluorescence photons for each experimental group was counted. […] In which the numbers in FIG. 4a, FIG. 4b, FIG. 4c, FIG. 4d, FIG. 4e and FIG. 4f represent the total number of fluorescence photons in the circular region (ROI, region of interest), and FIG. 4g and FIG. 4h are statistical graphs of the total number of fluorescence photons for each experimental group, respectively. […]

Data set [1] deals with type I interferon expression in THP-1 cells. Conditions: reference compound 2′3′-RR-(AXA) in patent CN108430503A; read-out: EC50 value of the control drug; cited from earlier work.
Data set [2] in a line: Determination of the oil-water partition coefficient log P (n-octanol/water, HPLC). It counts as physicochemical. Conditions: pH 7; n-octanol / purified water (10 mM K2HPO4 pH7.0), HPLC peak area ratio, three repeats. The method, then: Determination of the Oil-Water Partition Coefficient Log P of the Two Cyclic Dinucleotide Prodrug Molecules.
1) Preparing the compound solution: a certain amount of the compound 8, the compound 16 and the compound cddA35 were weighed and dissolved in DMSO solutions respectively to prepare mother solutions with a concentration of 1 mg/mL. 2) 20 μL of the prepared mother liquor was added to an EP tube containing a mixture of 1 mL of n-octanol and 1 mL of purified water (10 mM K2HPO4 pH7.0), vortexed for 2 h with shaking, and allowed to stand overnight at 4° C. for phase separation, and 400 μL of solution from each phase was separated. Centrifuging at 3000 rpm for 5 min, filtering with corresponding […] filter membrane, measuring the two-phase absorption peak area under the same HPLC parameter condition, repeating the experiment for three times, and calculating log value of the peak area ratio of n-octyl alcohol phase and water phase to obtain the log P value of the target compound, as shown in Table 2.
HPLC conditions: the instrument used by an Agilent 1260 HPLC, column: Agilent ZORABX SB-C185 μm [4.6×150 mm], column temperature 25° C., sample injection 10 μL, detection wavelength was […], chromatographic gradient method as shown in Table 1 below.

The subject of data set [3] is type I interferon expression in THP-1 cells. Briefly: Type I interferon activity assay in monocytic cell line THP-1 (THP-1-Lucia) cells. In kind it is cell-based. The following applies: for EC50: Homo sapiens, THP-1, dose-response curves, serial dilutions, FIG. 3, read-out: EC50 causing type I interferon expression in THP-1 cell line. The method, then: Activity Assay of Two Cyclic Dinucleotide Prodrug Molecules in Monocytic Cell Line THP-1 Cells
The THP-1-Lucia cells confluency reached about 80%, and the compound 8, the compound 16 and the drug ADU-S100 are directly dissolved into a culture medium according to a certain concentration and added into a 24-well plate, wherein four wells are parallel. The cells were maintained under the culture condition of 37° C. and 5% CO2 for 24 h. After the end of the culture, luciferase activity was measured. Wherein, the test results of the type I interferon of the compound 8, the compound 16 and the drug ADU-S100 in the monocyte cell line THP-1 under the action concentration of 10 μM are shown in FIG. 2; EC50 values for the compound 8 and the compound 16 to cause type I interferon expression in THP-1 cell lines were then determined by dose-response curves for serial dilutions at various concentrations, as shown in FIG. 3.

The subject of another data set is STING. Briefly: Dual-fluorescence reporter gene activity assay in HEK293T cells (hSTING-wt, IFNβ promoter luciferase). In kind it is cell-based, human. The following applies: 5 μM, without any transfection reagent, 24 h, FIG. 1. The method, then: Activity assay of two cyclic dinucleotide prodrug molecules in HEK293T cells
The principle is as follows: dual-fluorescence reporter gene experiments: After entering a cell, the cyclic dinucleotide prodrug molecule passes through thioesterase in the cytoplasm of the cell or a reducing environment, so that thioester bond breakage or disulfide bond breakage is carried out, then an intermediate is obtained, a sulfur atom at a p position can nucleophilically attack a carbon atom at the a position, cyclic thioethane is removed, cyclic dinucleotides with a phosphodiester structure of a parent drug with negative charges are released, the intracellular STING protein is combined and activated, interferon regulatory factor 3 (IRF3) is phosphorylated, phosphorylated IRF3 enters into the nucleus and combined with the promoter region of a interferon-β gene to cause the expression of interferon, and based on these, the interferon gene promoter is introduced into a promoter of firefly luciferase, so that the cell activity of the prodrug molecule can be measured by using a dual-fluorescence reporter gene method.
(1) preparing the compound solution: the compound 8 and the compound 16 were dissolved in DMSO, respectively, to obtain a final concentration of 1 mM. cddA35 was dissolved in water and similarly prepared at a concentration of 1 mM. […]

On to `Nc1ncnc2c1ncn2[C@@H]1O[C@@H]2COP(=O)([S-])O[C@@H]3[C@H](O)[C@@H](COP([O-])(=S)O[C@H]2[C@H]1O)O[C@H]3n1cnc2c(N)ncnc21.[Na+].[Na+]` (stereo partly shown) [ADU-S100], for which the “growth of the tumor in the mice” value in the data set with CT-26-Luc cells is recorded as “only controlled”. Further, in data set [1], the concentration giving a half-maximal response (EC50) is 41500 nM.

For the compound `CC(C)(C)C(=O)SCCOP1(=O)OC[C@H]2O[C@@H](n3cnc4c(N)ncnc43)C[C@H]2OP(=O)(OCCSC(=O)C(C)(C)C)OC[C@H]2O[C@@H](n3cnc4c(N)ncnc43)CC2O1` (stereo partly shown) [Compound 8], in data set [2], the log partition coefficient (logP) is 1.93. For the same compound, the EC50 in data set [3] turned out to be 4.4 nM.

For the compound `Nc1ncnc2c1ncn2[C@H]1CC2OP(=O)(OCCSSc3ccccn3)OC[C@H]3O[C@@H](n4cnc5c(N)ncnc54)CC3OP(=O)(OCCSSc3ccccn3)OC[C@H]2O1` (stereo partly shown) [Compound 16], the logP in data set [2] was determined as 0.85. For the same compound, the “dual-fluorescence result: crossing cell membranes and activating STING pathway / expression of interferon” value in the data set on STING was “can autonomously cross cell membranes without any transfection reagent”. In addition, in data set [3], the half-maximal effective concentration (EC50) worked out at 355 nM. Besides, the “expression of type I interferon in THP-1 cell line” value in data set [3] (action concentration of 10 μM, without any transfection reagent, 24 h, FIG. 2, activity much higher than ADU-S100) was “strong expression of type I interferon”.

`Nc1ncnc2c1ncn2[C@H]1CC2OP(=O)(O)OC[C@H]3O[C@@H](n4cnc5c(N)ncnc54)CC3OP(=O)(O)OC[C@H]2O1` (stereo partly shown) [cddA35, reference compound]: in data set [2], the logP was -3.43. Besides, in the data set on STING, the “dual-fluorescence result: crossing cell membranes and activating STING pathway / expression of interferon” value is recorded as “hardly crosses cell membranes”.
